According to patent publication US12655142B2 (Merck Patent GmbH, priority 2019, dated 2026):

What was measured:
[1] = target: T1, GIST430/654 cell line expressing mutated constitutively active cKIT receptor tyrosine kinase (Δ560-576 deletion and V654A point mutation) (Homo sapiens, UniProt P10721, DEL560-576/V654A); experiment: Cellular cKIT autophosphorylation (phospho-Y307-cKIT, Luminex bead assay) in GIST430/654 cells; format: cell-based; settings: compounds 45 min, read-out: GIST 430/654 IC50
T1 construct: endogenous in cells; host or cells: GIST430/654 cells
T1 sequence (P10721 with tags, fused parts or gaps DEL560-576/V654A): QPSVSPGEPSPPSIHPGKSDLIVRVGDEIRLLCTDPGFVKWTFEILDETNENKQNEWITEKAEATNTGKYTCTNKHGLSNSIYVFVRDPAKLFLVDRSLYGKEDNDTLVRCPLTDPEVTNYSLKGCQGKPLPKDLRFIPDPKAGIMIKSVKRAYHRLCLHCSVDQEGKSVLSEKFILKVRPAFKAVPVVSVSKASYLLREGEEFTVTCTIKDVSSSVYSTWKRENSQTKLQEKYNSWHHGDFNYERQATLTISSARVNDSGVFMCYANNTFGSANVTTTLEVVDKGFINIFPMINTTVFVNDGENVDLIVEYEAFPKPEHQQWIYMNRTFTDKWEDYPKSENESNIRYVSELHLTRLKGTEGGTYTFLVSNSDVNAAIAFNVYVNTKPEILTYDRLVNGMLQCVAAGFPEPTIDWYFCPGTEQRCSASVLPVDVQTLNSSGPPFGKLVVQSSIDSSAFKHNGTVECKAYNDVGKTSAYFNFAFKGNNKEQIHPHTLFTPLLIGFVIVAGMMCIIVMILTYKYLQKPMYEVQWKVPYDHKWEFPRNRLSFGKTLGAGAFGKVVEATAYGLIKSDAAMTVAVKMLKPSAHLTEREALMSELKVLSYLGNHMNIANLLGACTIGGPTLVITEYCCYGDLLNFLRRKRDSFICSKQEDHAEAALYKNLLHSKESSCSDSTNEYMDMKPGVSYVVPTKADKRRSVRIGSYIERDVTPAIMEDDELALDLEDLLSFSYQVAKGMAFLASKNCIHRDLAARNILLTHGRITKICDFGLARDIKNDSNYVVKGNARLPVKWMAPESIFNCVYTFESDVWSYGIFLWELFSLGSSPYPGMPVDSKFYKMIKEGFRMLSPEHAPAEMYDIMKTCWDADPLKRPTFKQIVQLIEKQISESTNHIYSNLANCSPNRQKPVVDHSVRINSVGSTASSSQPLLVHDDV
Description: Assay Principle for Cellular Testing of cKIT Mutant Inhibitors
The GIST430 cell line expressing constitutive active cKIT receptor tyrosine kinase (Δ560-576 deletion) and the Imatinib resistant GIST430/654 cell line expressing mutated constitutively active cKIT receptor tyrosine kinase (Δ560-576 deletion and V654A point mutation) were employed for assessing cellular potency of compounds. Cellular activity of mutant cKIT was determined by the degree of cKIT autophosphorylation at tyrosine 307 using a Luminex-based bead assay. GIST430 cells were plated with 22,000 cells per well of a 96-well plate in 100 μl medium (85% IMDM/15% FCS) and GIST430/654 cells were plated with 25,000 cells per well of a 96-well plate in 100 μl medium (85% IMDM/15% FCS supplemented with 100 nM Imatinib). At the following day compounds were added in a serial dilution for 45 min. Then, cells were lysed with 90 μl lysis buffer (20 mM Hepes pH 7.5, 200 mM NaCl, 1.5 mM MgCl2×6H2O, 0.4 mM EDTA, 1% Triton-X-100, 1% Phosphatase-Inhibitor II, 20 mM β-Glycerolphosphat, 0.1% Protease-Inhibitor Cocktail III, 0.01% Benzonase) and lysates were cleared by centrifugation through a 96-well filter plate (0.65 μm). Samples were incubated with Luminex-beads which were coupled with an anti-total cKIT antibody overnight at 4° C. under gentle agitation. For detection of phospho-Y307-cKIT a phosphospecific antibody and a species-specific PE-labeled secondary antibody were added. The amount of phospho-Y307-cKIT was determined in a Luminex 200 instrument measuring 100 events per well within 60 seconds.
Counts from samples treated with compounds were calculated as percent of control from solvent treated (0.3% DMSO) samples. Dose-response curves were fitted and IC50 values were determined using Genedata Screener software.

c-Kit(V654A) = target: T2, c-Kit(V654A) (Homo sapiens, UniProt P10721, V654A); experiment: c-Kit(V654A) assay (33P-ATP filter binding kinase assay); format: biochemical; settings: recombinant human c-Kit aa 544-end V654A, ATP 200 μM
T2 construct: recombinant human c-Kit, amino acids 544-end containing the V654A mutation; GST (N)
T2 sequence (P10721 544-976 V654A): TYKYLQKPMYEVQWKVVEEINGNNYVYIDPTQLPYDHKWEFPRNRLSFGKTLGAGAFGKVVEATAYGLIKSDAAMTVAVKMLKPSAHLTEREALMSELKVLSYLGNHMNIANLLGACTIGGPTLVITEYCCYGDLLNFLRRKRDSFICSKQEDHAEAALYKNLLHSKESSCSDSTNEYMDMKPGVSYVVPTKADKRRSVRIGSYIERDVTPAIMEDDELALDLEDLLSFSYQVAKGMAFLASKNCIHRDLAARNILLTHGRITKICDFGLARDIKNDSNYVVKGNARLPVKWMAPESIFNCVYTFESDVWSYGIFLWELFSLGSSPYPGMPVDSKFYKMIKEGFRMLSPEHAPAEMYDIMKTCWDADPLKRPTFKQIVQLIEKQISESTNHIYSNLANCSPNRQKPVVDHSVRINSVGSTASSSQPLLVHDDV
Description: c-Kit(V654A) (N-terminal GST-tagged, recombinant human c-Kit, amino acids 544-end containing the V654A mutation) is incubated with 8 mM MOPS pH 7.0, 0.2 mM EDTA, 250 μM GGMEDIYEFMGGKKK, 10 mM MgAcetate and [gamma-33P-ATP] (specific activity approx. 500 cpm/pmol, concentration 200 μM). The reaction is initiated by the addition of the MgATP mix. After incubation for 40 minutes at room temperature, the reaction is stopped by the addition of 3% phosphoric acid solution. 10 μL of the reaction is then spotted onto a P30 filtermat and washed three times for 5 minutes in 75 mM phosphoric acid and once in methanol prior to drying and scintillation counting.

Structure (SMILES)	IC50 [1] [nM]	IC50 (c-Kit(V654A)) [nM]
Cn1cc(-c2ccc(CNc3cc(-c4cnc5cc(OCCN6CCCC(F)(F)C6)ccn45)ncn3)cc2)cn1 [A136, 6-{7-[2-(3,3-difluoropiperidin-1-yl)ethoxy]imidazo[1,2-a]pyridin-3-yl}-N-{[4-(1-methyl-1H-pyrazol-4-yl)phenyl]methyl}pyrimidin-4-amine]	150	10
Cn1ncc(-c2ccc(CNc3cc(-c4cnc5cc(N6CCCC6)ccn45)ncn3)cc2)n1 [A232, [4-(2-methyl-2H-[1,2,3]triazol-4-yl)-benzyl]-[6-(7-pyrrolidin-1-yl-imidazo[1,2-a]pyridin-3-yl)-pyrimidin-4-yl]-amine]	170	23
CCn1cc(-c2ccc(CNc3cc(-c4cnc5cc(OC)ccn45)ncn3)cc2)cn1 [A23, [4-(1-ethyl-1H-pyrazol-4-yl)-benzyl]-[6-(7-methoxy-imidazo[1,2-a]pyridin-3-yl)-pyrimidin-4-yl]-amine]	66	6.2
CN1CCN(CCCOc2ccn3c(-c4cc(NCc5ccc(-c6cnn(C)n6)cc5)ncn4)cnc3c2)CC1 [A96, N-{[4-(2-methyl-2H-1,2,3-triazol-4-yl)phenyl]methyl}-6-{7-[3-(4-methylpiperazin-1-yl)propoxy]imidazo[1,2-a]pyridin-3-yl}pyrimidin-4-amine]	31	2.9
CCN(CC)CCCOc1ccn2c(-c3cc(NCc4ccc(-c5cnn(C)c5)cc4)ncn3)cnc2c1 [A137, 6-{7-[3-(diethylamino)propoxy]imidazo[1,2-a]pyridin-3-yl}-N-{[4-(1-methyl-1H-pyrazol-4-yl)phenyl]methyl}pyrimidin-4-amine]	45	5.6
COc1ccn2c(-c3cc(NCc4ccc(-c5cnn(CCN6CCOCC6)c5)cc4)ncn3)cnc2c1 [A22, [6-(7-methoxy-imidazo[1,2-a]pyridin-3-yl)-pyrimidin-4-yl]-{4-[1-(2-morpholin-4-yl-ethyl)-1H-pyrazol-4-yl]-benzyl}-amine]		110
COc1ccn2c(-c3cc(OC(C)c4ccc(-c5cnn(C)c5)cc4)ncn3)cnc2c1 (stereo not drawn) [A171, 7-methoxy-3-(6-{1-[4-(1-methyl-1H-pyrazol-4-yl)-phenyl]-ethoxy}-pyrimidin-4-yl)-imidazo[1,2-a]pyridine]		58
COCC(COC)Oc1ccn2c(-c3cc(NCc4ccc(-c5cnn(C)c5)cc4)ncn3)cnc2c1 [A54, {6-[7-(2-methoxy-1-methoxymethyl-ethoxy)-imidazo[1,2-a]pyridin-3-yl]-pyrimidin-4-yl}-[4-(1-methyl-1H-pyrazol-4-yl)-benzyl]-amine]		120
Cn1cc(-c2ccc(CNc3cc(-c4cnc5cc(OCCCN6CC[S+]([O-])CC6)ccn45)ncn3)cc2)cn1 [A241, [4-(1-methyl-1H-pyrazol-4-yl)-benzyl]-(6-{7-[3-(1-oxo-1|4-thiomorpholin-4-yl)-propoxy]-imidazo[1,2-a]pyridin-3-yl}-pyrimidin-4-yl)-amine]		6.5
Cn1cc(-c2ccc(CNc3cc(-c4cnc5cc(OCc6nccn6C)ccn45)ncn3)cc2)nn1 [A110, {6-[7-(1-methyl-1H-imidazol-2-ylmethoxy)-imidazo[1,2-a]pyridin-3-yl]-pyrimidin-4-yl}-[4-(1-methyl-1H-[1,2,3]triazol-4-yl)-benzyl]-amine]		110
COc1ccn2c(-c3cc(NCc4ccc(-c5cnn(C)n5)nc4)ncn3)cnc2c1 [A45, [6-(7-methoxy-imidazo[1,2-a]pyridin-3-yl)-pyrimidin-4-yl]-[6-(2-methyl-2H-[1,2,3]triazol-4-yl)-pyridin-3-ylmethyl]-amine]		130
COc1ccn2c(-c3cc(NCc4ccc(-c5cnc(CO)n5C)cc4)ncn3)cnc2c1 [A174, [5-(4-{[6-(7-Methoxy-imidazo[1,2-a]pyridin-3-yl)-pyrimidin-4-ylamino]-methyl}-phenyl)-1-methyl-1H-imidazol-2-yl]-methanol]		260
Cn1cc(-c2ccc(CNc3cc(-c4cnc5cc(OCCN6CCC67COC7)ccn45)ncn3)cc2)cn1 [A207, [4-(1-methyl-1H-pyrazol-4-yl)-benzyl]-(6-{7-[2-(6-oxa-1-aza-spiro[3.3]hept-1-yl)-ethoxy]-imidazo[1,2-a]pyridin-3-yl}-pyrimidin-4-yl)-amine]		8.7
COc1ccn2c(-c3cc(NCc4ccc(-n5cnc6ccccc65)cc4)ncn3)cnc2c1 [A27, N-{[4-(1H-1,3-benzodiazol-1-yl)phenyl]methyl}-6-{7-methoxyimidazo[1,2-a]pyridin-3-yl}pyrimidin-4-amine]		63
COc1ccn2c(-c3cc(NCc4ccc(-c5cnc(C)nc5N)cc4)ncn3)cnc2c1 [A43, 5-(4-{[(6-{7-methoxyimidazo[1,2-a]pyridin-3-yl}pyrimidin-4-yl)amino]methyl}phenyl)-2-methylpyrimidin-4-amine]		260

The remaining molecules from weak to strong by IC50 (c-Kit(V654A)), led by results:

IC50 [1] [nM]	IC50 (c-Kit(V654A)) [nM]	Structure (SMILES)
	160	COc1ccn2c(-c3cc(NCc4ccc(-c5cnn(CCN6CCCC6)c5)cc4)ncn3)cnc2c1 [A24, [6-(7-methoxy-imidazo[1,2-a]pyridin-3-yl)-pyrimidin-4-yl]-{4-[1-(2-pyrrolidin-1-yl-ethyl)-1H-pyrazol-4-yl]-benzyl}-amine]
	88	COc1ccn2c(-c3cc(NCc4ccc(-c5cnn(CC6CNC6)c5)cc4)ncn3)cnc2c1 [A159, N-[(4-{1-[(azetidin-3-yl)methyl]-1H-pyrazol-4-yl}phenyl)methyl]-6-{7-methoxyimidazo[1,2-a]pyridin-3-yl}pyrimidin-4-amine]
640	27	COc1ccn2c(-c3cc(NCc4ccc(-c5cncn5C)cc4)ncn3)cnc2c1 [A39, 6-{7-methoxyimidazo[1,2-a]pyridin-3-yl}-N-{[4-(1-methyl-1H-imidazol-5-yl)phenyl]methyl}pyrimidin-4-amine]
	24	Cn1cc(-c2ccc(CNc3cc(-c4cnc5cc(OCC6CN(CC(F)(F)F)C6)ccn45)ncn3)cc2)cn1 [A254, N-{[4-(1-methyl-1H-pyrazol-4-yl)phenyl]methyl}-6-(7-{[1-(2,2,2-trifluoroethyl)azetidin-3-yl]methoxy}imidazo[1,2-a]pyridin-3-yl)pyrimidin-4-amine]
	21	Cn1ncc(-c2ccc(CNc3cc(-c4cnc5cc(N6CCN(C7COC7)CC6)ccn45)ncn3)cc2)n1 [A244, [4-(2-methyl-2H-[1,2,3]triazol-4-yl)-benzyl]-{6-[7-(4-oxetan-3-yl-piperazin-1-yl)-imidazo[1,2-a]pyridin-3-yl]-pyrimidin-4-yl}-amine]
220	15	COc1ccn2c(-c3cc(NCc4ccc(-c5nnn(C)n5)cc4)ncn3)cnc2c1 [A37, 6-{7-methoxyimidazo[1,2-a]pyridin-3-yl}-N-{[4-(2-methyl-2H-1,2,3,4-tetrazol-5-yl)phenyl]methyl}pyrimidin-4-amine]
	12	CN1CC(F)(COc2ccn3c(-c4cc(NCc5ccc(-c6cnn(C)c6)cc5)ncn4)cnc3c2)C1 [A256, 6-{7-[(3-fluoro-1-methylazetidin-3-yl)methoxy]imidazo[1,2-a]pyridin-3-yl}-N-{[4-(1-methyl-1H-pyrazol-4-yl)phenyl]methyl}pyrimidin-4-amine]
63	7.9	Cn1cc(-c2ccc(CNc3cc(-c4cnc5cc(OCCc6nccn6C)ccn45)ncn3)cc2)cn1 [A111, (6-{7-[2-(1-methyl-1H-imidazol-2-yl)-ethoxy]imidazo[1,2-a]pyridin-3-yl}-pyrimidin-4-yl)-[4-(1-methyl-1H-pyrazol-4-yl)-benzyl]-amine]
	7.3	Cn1cc(-c2ccc(CNc3cc(-c4cnc5cc(OCCCN6CC(F)C6)ccn45)ncn3)cc2)cn1 [A240, (6-{7-[3-(3-fluoro-azetidin-1-yl)-propoxy]-imidazo[1,2-a]pyridin-3-yl}-pyrimidin-4-yl)-[4-(1-methyl-1H-pyrazol-4-yl)-benzyl]-amine]
	6.5	Cn1ncc(-c2ccc(CNc3cc(-c4cnc5cc(OCCCN6CCN(C7CC7)CC6)ccn45)ncn3)cc2)n1 [A253, (6-{7-[3-(4-cyclopropyl-piperazin-1-yl)-propoxy]-imidazo[1,2-a]pyridin-3-yl}-pyrimidin-4-yl)-[4-(2-methyl-2H-[1,2,3]triazol-4-yl)-benzyl]-amine]
